Series [1] has as its system IL-1β secretion in BMDM cells (NLRP3 inflammasome). The series is described as follows: ELISA of IL-1β secretion in LPS/nigericin-treated BMDM cells. The conditions noted are these: Mus musculus; 20 µM; LPS/nigericin-treated BMDM cells; mean ± S.E.M. (n = 3); read-out: IL-1β Inhibition Rate (%). In kind it is cell-based. The protocol: When L929 cells reach the logarithmic phase, collect the cell supernatant. Filter the supernatant using a 0.22 μm filter and store it at −20 °C for future use. The 7-week-old C57BL/6 mice were selected as the source of primary bone marrow macrophages. The mice were euthanized using the cervical dislocation method. The ends of the femurs were cut, and the bone marrow was flushed into a 15 mL centrifuge tube using a 5 mL syringe. Once all the bone marrow was collected, an appropriate amount of red blood cell lysis buffer was added to the centrifuge tube. The mixture was incubated for 3–5 min, with repeated pipetting to thoroughly lyse the red blood cells. The cells were then centrifuged and collected. Add 30–40% L929 cell supernatant or M-CSF stimulatory factor to the culture dish. Culture the cells in a cell incubator at 37 °C with 5% CO2. Observe the cell condition daily, and once most cells have adhered to the surface, proceed with subsequent experiments.
Inoculate 1.0 × 10^5 BMDMs cells per well into a 96 well plate and culture overnight. Stimulate the cells with lipopolysaccharide (LPS) at a concentration of 0.2 μg/mL for 3 h, then add different concentrations of the test compounds and incubate for 30 min. Finally, add Nigericin at a concentration of 10 μM to continue the induction for 30 min. Collect the cell supernatant and measure the IL-1β secretion level in the supernatant using an ELISA kit, following the instructions provided, and calculate the IC50 value based on the relevant calculations. To ensure the accuracy and reliability of the experimental results, all experiments were repeated three times, with each experiment performed independently.
A general note: In an ELISA, binding on a coated surface is turned into a signal by an enzyme label.

A short description of series [2]: MTT assay, HepaRG cytotoxicity. In kind it is cell-based. The conditions noted are these: human, HepaRG cells, n = 3. Here is the method:
HepaRG cells in the logarithmic growth phase (10^5 cells/mL), inoculate them into a 96-well plate, and culture overnight in a 37 °C, 5% CO2 incubator. Add compounds at different concentrations and continue culturing for 24 h. Add 20 μL of MTT solution, incubate for 4 h, discard the supernatant, and add DMSO to dissolve.
Background: Formazan colour is commonly taken as a measure of viable cells.

Each structure is given as a SMILES string.

On to `O=C(/C=C/c1ccccc1O)c1ccccc1` [Compound F1], for which, in series [1], the inhibition (as a rule, the drop in the measured response relative to a control, in per cent) at 20 µM stood at 52.1 ± 3.72%. Besides, in series [2], the half-inhibitory concentration (IC50) (as a rule, the concentration needed to halve the response being measured) at 24 h is above 50 µM.
For the molecule `COc1cccc(C(=O)/C=C/c2cccc(O)c2)c1` [Compound F3, (E)-3-(3-hydroxyphenyl)-1-(3-methoxyphenyl)propyl-2-en-1-one], in series [1], the inhibition at 20 µM stood at 93.4 ± 2.98%. Further, the IC50 at 24 h in series [2] was above 50 µM.
With `O=C(/C=C/c1cccc(O)c1)c1ccccc1` [Compound F4, (E)-3-(3-hydroxyphenyl)-1-phenylpropyl-2-en-1-one], the inhibition at 20 µM in series [1] turned out to be 25.6 ± 9.03%. The same molecule returned an IC50 at 24 h in series [2] above 50 µM.
As to `COc1ccc(C(=O)/C=C/c2cccc(O)c2)cc1` [Compound F6, (E)-3-(3-hydroxyphenyl)-1-(4-methoxyphenyl)propyl-2-en-1-one], in series [1], the inhibition at 20 µM turned out to be 25.1 ± 2.84%. Besides, the IC50 at 24 h in series [2] is above 50 µM.
For `O=C(/C=C/c1ccccc1O)c1ccccc1Cl` [Compound F7, (E)-1-(2-chlorophenyl)-3-(2-hydroxyphenyl)propyl-2-en-1-one], in that order: 94.8 ± 3.29% and above 50 µM.
The corresponding values for `O=C(/C=C/c1ccccc1O)c1ccc(Cl)cc1` [Compound F8, (E)-1-(4-chlorophenyl)-3-(2-hydroxyphenyl)propyl-2-en-1-one] are 45.9 ± 3.45% and above 50 µM.
As for `O=C(/C=C/c1ccccc1O)c1ccc(Br)cc1` [Compound F9, (E)-1-(4-bromophenyl)-3-(2-hydroxyphenyl)propyl-2-en-1-one], in series [1], the inhibition at 20 µM is 28.4 ± 5.76%. In series [2], this molecule gave an IC50 at 24 h above 50 µM.
The corresponding values for `O=C(/C=C/c1cccc(O)c1)c1ccc(Br)cc1` [Compound F10, (E)-1-(4-bromophenyl)-3-(3-hydroxyphenyl)propyl-2-en-1-one] are 24.2 ± 7.91% and above 50 µM.
The corresponding values for `Cc1ccc(C(=O)/C=C/c2ccccc2O)c(C)c1` [Compound F11, (E)-1-(2,4-dimethylphenyl)-3-(2-hydroxyphenyl)propyl-2-en-1-one] are 88.7 ± 9.22% and above 50 µM.
In the case of `Cc1ccc(C(=O)/C=C/c2cccc(O)c2)cc1C` [Compound F12, (E)-1-(3,4-dimethylphenyl)-3-(3-hydroxyphenyl)propyl-2-en-1-one], the inhibition at 20 µM in series [1] was determined as 15.4 ± 4.13%. Further, the concentration for half-maximal inhibition (IC50) at 24 h in series [2] is above 50 µM.
As for `O=C(/C=C/c1cccc(O)c1)c1cccc(F)c1` [Compound F13, (E)-1-(3-fluorophenyl)-3-(3-hydroxyphenyl)propyl-2-en-1-one], the inhibition at 20 µM in series [1] came out at 34 ± 8.74%. This molecule also registered an IC50 at 24 h in series [2] above 50 µM.
On to `O=C(/C=C/c1ccccc1O)c1cccc2ccccc12` [Compound F15, (E)-3-(2-hydroxyphenyl)-1-(naphthale-1-yl)propyl-2-en-1-one], for which the inhibition at 20 µM in series [1] was determined as 91.7 ± 5.89%. The same molecule registered an IC50 at 24 h in series [2] above 50 µM.
`O=C(/C=C/c1ccccc1O)c1cccs1` [Compound F16, (E)-3-(2-hydroxyphenyl)-1-(thiophene-2-yl)propion-2-en-1-one]: the inhibition at 20 µM in series [1] came to 92.6 ± 3.23%. In series [2], this molecule displayed an IC50 at 24 h above 50 µM.
For `O=C(/C=C/c1ccc(O)cc1)c1ccccc1` [Compound W1, (E)-3-(4-hydroxyphenyl)-1-phenylprop-2-en-1-one], in that order: 17.8 ± 3.45% and above 50 µM.
For `COc1cccc(C(=O)/C=C/c2ccc(O)cc2)c1` [Compound W2, (E)-3-(4-hydroxyphenyl)-1-(3-methoxyphenyl)propyl-2-en-1-one], in that order: 67 ± 1.23% and above 50 µM.
The corresponding values for `O=C(/C=C/c1ccc(O)cc1)c1cccc(Cl)c1` [Compound W3, (E)-1-(3-chlorophenyl)-3-(4-hydroxyphenyl)propyl-2-en-1-one] are 21.8 ± 9.56% and above 50 µM.
Consider `COc1ccc(C(=O)/C=C/c2ccc(O)cc2)cc1` [Compound W4, (E)-3-(4-hydroxyphenyl)-1-(4-methoxyphenyl)propyl-2-en-1-one], for which the inhibition at 20 µM in series [1] was determined as 6.89 ± 4.78%. In series [2], this molecule registered an IC50 at 24 h above 50 µM.
With `O=C(/C=C/c1ccc(O)cc1)c1ccccc1Cl` [Compound W5, (E)-1-(2-chlorophenyl)-3-(4-hydroxyphenyl)propion-2-en-1-one], in series [1], the inhibition at 20 µM came to 51.7 ± 2.23%. In series [2], this molecule displayed an IC50 at 24 h above 50 µM.
As to `O=C(/C=C/c1ccc(O)cc1)c1ccc(Cl)cc1` [Compound W7, (E)-1-(4-chlorophenyl)-3-(4-hydroxyphenyl)propyl-2-en-1-one], in series [1], the inhibition at 20 µM is 24.3 ± 3.67%. Further, the IC50 at 24 h in series [2] was above 50 µM.
Turning to `Cc1ccc(C(=O)/C=C/c2ccc(O)cc2)c(C)c1` [Compound W8, (E)-1-(2,4-dimethylphenyl)-3-(4-hydroxyphenyl)propyl-2-en-1-one], the inhibition at 20 µM in series [1] came out at 88.9 ± 5.91%. The IC50 at 24 h in series [2] is above 50 µM.
The corresponding values for `Cc1ccc(C(=O)/C=C/c2ccc(O)cc2)cc1C` [Compound W9, (E)-1-(3,4-dimethylphenyl)-3-(4-hydroxyphenyl)propyl-2-en-1-one] are 10.3 ± 6.43% and above 50 µM.
As to `O=C(/C=C/c1ccc(O)cc1)c1cccc(F)c1` [Compound W10, (E)-1-(3-fluorophenyl)-3-(4-hydroxyphenyl)propyl-2-en-1-one], the inhibition at 20 µM in series [1] was determined as 33.6 ± 3.21%. Besides, in series [2], the 50% inhibitory concentration (IC50) at 24 h was above 50 µM.
The corresponding values for `O=C(/C=C/c1ccc(O)cc1)c1cccc2ccccc12` [Compound W11, (E)-3-(4-hydroxyphenyl)-1-(naphthalene-1-yl)propyl-2-en-1-one] are 88.3 ± 7.01% and above 50 µM.
Regarding `CC(C)(O)c1coc(S(=O)(=O)NC(=O)Nc2c3c(cc4c2CCC4)CCC3)c1` [MCC950, reference compound], in series [2], the half-maximal inhibitory concentration (IC50) at 24 h is above 50 µM.

The record behind these values is publication PMC12388496, “Discovery of (E)-1,3-Diphenyl-2-Propen-1-One Derivatives as Potent and Orally Active NLRP3 Inflammasome Inhibitors for Colitis” (Molecules, 2025).
